# Values joined by “and” are separate entries in the source; they are usually repeats but may differ in a detail not shown here. Identical values can stand only once.
# Tests used:
# Details in all cases: in vivo
# [1] = test system: nematode inoculum (eggs and larvae) in soil; design: species or system Meloidogyne javanica
# Meloidogyne javanica = test system: Meloidogyne javanica
# [2] = test system: root-knot nematodes Meloidogyne javanica
SMILES,reduction of galling infection (Meloidogyne javanica),also measured
CBr [Methyl Bromide],,control of nematode infection in the roots [1]: highly effective in controlling nematode infection in the roots
N[C@@H](CS)C(=O)O [Cysteine],most effective,
"O=[PH](O)O [phosphite, H3PO3]",,galling incidence and galling index (nematode control) (Meloidogyne javanica): higher efficacy in controlling nematodes as compared with urea
NCCCC[C@H](N)C(=O)O [Lysine],most effective,
OP(O)O [phosphorous acid],,galling incidence [2]: 20% and 10%
N[C@@H](CC(=O)O)C(=O)O [Aspartic acid],most effective,
